Data from patent publication US9176124B2, “Method for measurement of equol in biological sample by immunoassay, kit for the measurement, and method for determination of equol production ability of subject” (OTSUKA PHARMACEUTICAL CO., LTD., priority 2009, dated 2015).

Tests used:
[1] = tested on: anti-equol rabbit antiserum (primary antibody); test: Cross-reactivity of the primary antibody by competitive ELISA (Test Example 2); type: binding; conditions: (IC20 of S-equol/IC20 of each isoflavone, etc.)×100, S-equol assumed 100%, horseradish peroxidase-labeled S-equol as labeled antigen, samples in 100% charcoal-treated human serum
Description: The above cross-reactivity can be explained as follows. Specifically, the above cross-reactivity indicates a ratio (%) of the concentration (IC20) of unlabeled S-equol at which the binding reaction of labeled S-equol to the anti-equol antibody can be inhibited by 20%, to the concentration (IC20) of each isoflavone and the like at which the binding reaction of labeled S-equol to the anti-equol antibody can be inhibited by 20%. More specifically, in the competitive reaction between labeled S-equol and unlabeled S-equol, the concentration of unlabeled S-equol at which the binding of labeled S-equol to the antibody is 80 is determined, assuming that the binding of labeled S-equol alone to the antibody is 100. Similarly, each unlabeled isoflavone and the like are competitively reacted with labeled S-equol, and the concentration of each isoflavone and the like at which binding of labeled S-equol to the antibody is 80 is determined.
The thus-determined ratio (expressed in percentage) between the concentration (IC20) of the unlabeled S-equol and the concentration (IC20) of each isoflavone and the like is referred to as the cross-reactivity. This is represented by the following formula: Cross-reactivity (%)=(IC20 of S-equol/IC20 of each isoflavone, etc.)×100
Herein, the cross-reactivity rate is determined by competitive ELISA, using S-equol as the standard antigen used for the preparation of a standard curve, as well as the labeled antigen that competes with equol in a biological sample.
In this Test Example, the cross-reactivity of the primary antibody was examined for the case where competitive ELISA was employed and S-equol was used as both the standard antigen and the labeled antigen. Specifically, the cross-reactivity was examined as follows.
Each of the isoflavones and the like shown in the later-described Table 4 was dissolved in 100% charcoal-treated human serum, and the resulting solution was used as a sample.
An anti-equol rabbit antiserum was used as the primary antibody, as in Example 1. The antiserum was suitably diluted with the later-described antiserum dilution buffer, and used in the test.
A goat anti-rabbit IgG antibody was used as a secondary antibody, as in Example 1. The antibody was immobilized to a solid phase as in Example 1, thus preparing a plate containing immobilized goat anti-rabbit IgG antibody.
Horseradish peroxidase-labeled S-equol was used as a labeled antigen, as in Example 1.
S-equol was used as a standard antigen, as in Example 1. Note that a standard equol solution in the forth of a mixed solution of S-equol (0, 30, 90, 270, or 810 ng/mL) and 100% charcoal-treated human serum was used.
A concentration dilution series was prepared for each of the isoflavones and the like, and for unlabeled S-equol. The adsorption by each of the isoflavones and the like, and the adsorption by unlabeled S-equol in the competitive reaction were measured from when the concentrations of these substances were 0 to when the concentrations of these substances were added in excess amounts. Each of the thus-obtained measured values was checked against a standard curve obtained from the dilution series of the standard antigen (S-equol), so as to compare the inhibition of the reaction based on each calculated value. Thereby, the concentration (IC20) of each of the isoflavones and the like, as well as the concentration (IC20) of unlabeled S-equol, at which the binding reaction of labeled S-equol to the anti-equol antibody is inhibited by 20%, were determined.
The competitive reaction was performed using competitive ELISA by a procedure similar to that in Example 1. Further, horseradish peroxidase was used as a labeling substance.
The ratio (expressed in percentage) of the thus-obtained concentration of each of the isoflavones and the like to the thus-obtained concentration of unlabeled S-equol was regarded as the cross-reactivity. […]

Labmaster Equol TR-FIA [2] = test: Cross-reactivity of the known kit Labmaster Equol TR-FIA; type: binding; conditions: with daidzein
Description: Further, for example, when Labmaster Equol TR-FIA, which is a heretofore known kit manufactured by Labmaster, is used, the cross-reactivity rate with daidzein is 0.8% (see labmaster.fi/products/tr-fia-kitS-equol-tr-fia.htm), and the cross-reactivity of the kit is 10 times as high as that of the present kit.

Labmaster Equol TR-FIA [3] = conditions: heretofore known kit; cited from earlier work
monoclonal antibody = conditions: Clinical Chemistry 53: 748-756, 2007; cited from earlier work

SMILES | Cross-reactivity Rate [1] [%] | further results
O=c1cc(-c2ccc(O)c(O)c2)oc2cc(O)cc(O)c12 [Luteolin] | 0.00 | –
Oc1ccc([C@@H]2COc3cc(O)ccc3C2)cc1 [R-Equol] | 13.24 | Cross-reactivity Rate ([1]; listed as R-equol): 13.24%
COc1cc2c(=O)c(-c3ccc(O)cc3)coc2cc1O[C@@H]1O[C@H](CO)[C@@H](O)[C@H](O)[C@H]1O [Glycitin] | 0.02 | –
O=c1c(-c2ccc(O)cc2)coc2cc(O)ccc12 [Daidzein] | 0.08 | Cross-reactivity Rate ([1]; listed as daidzein): 0.08%; cross-reactivity of the Labmaster kit relative to the present kit (Labmaster Equol TR-FIA [2]): 10 times; Cross-reactivity Rate (Labmaster Equol TR-FIA [3]): 0.8%; Cross-reactivity Rate (monoclonal antibody): < 0.04%
O=c1cc(-c2ccc(O)cc2)oc2cc(O)cc(O)c12 [Apigenin] | 0.00 | –
Oc1ccc(C2=Cc3ccc(O)cc3OC2)cc1 [Dehydroequol] | 0.33 | Cross-reactivity Rate ([1]; listed as dehydroequol): 0.33%; Cross-reactivity Rate (Labmaster Equol TR-FIA [3]): 42.3%
O=c1c(-c2ccc(O)cc2)coc2cc(O[C@@H]3O[C@H](CO)[C@@H](O)[C@H](O)[C@H]3O)cc(O)c12 [Genistin] | 0.06 | –
COc1ccc(-c2coc3cc(O)cc(O)c3c2=O)cc1 [Biochanin A] | 0.11 | –
O=c1c(-c2ccc(O)cc2)coc2cc(O)cc(O)c12 [Genistein] | 0.05 | –
O=C1c2ccc(O)cc2OCC1c1ccc(O)cc1 (centres unmarked) [Dihydrodaizein] | 1.03 | Cross-reactivity Rate ([1]; listed as dihydrodaidzein): 1.03%; Cross-reactivity Rate (Labmaster Equol TR-FIA [3]): 4.0%
COc1cc2c(=O)c(-c3ccc(O)cc3)coc2cc1O [Glycitein] | 0.03 | –
O=c1c(-c2ccc(O)cc2)coc2cc(O[C@@H]3O[C@H](CO)[C@@H](O)[C@H](O)[C@H]3O)ccc12 [Daidzin] | 0.06 | Cross-reactivity Rate ([1]; listed as daidzin): 0.06%
Oc1ccc([C@H]2COc3cc(O)ccc3C2)cc1 [S-Equol] | 100.00 | –
